The record followed here is patent US10414774B2, “Compound useful for altering the levels of bile acids for the treatment of diabetes and cardiometabolc disease” (Merck Sharp & Dohme Corp., priority 2016, dated 2019).

pIC50: −log10 of the molar value.

The target in this assay is T1, Human CYP8B1 (Homo sapiens, UniProt Q9UNU6).
T1 sequence (Q9UNU6 1-501): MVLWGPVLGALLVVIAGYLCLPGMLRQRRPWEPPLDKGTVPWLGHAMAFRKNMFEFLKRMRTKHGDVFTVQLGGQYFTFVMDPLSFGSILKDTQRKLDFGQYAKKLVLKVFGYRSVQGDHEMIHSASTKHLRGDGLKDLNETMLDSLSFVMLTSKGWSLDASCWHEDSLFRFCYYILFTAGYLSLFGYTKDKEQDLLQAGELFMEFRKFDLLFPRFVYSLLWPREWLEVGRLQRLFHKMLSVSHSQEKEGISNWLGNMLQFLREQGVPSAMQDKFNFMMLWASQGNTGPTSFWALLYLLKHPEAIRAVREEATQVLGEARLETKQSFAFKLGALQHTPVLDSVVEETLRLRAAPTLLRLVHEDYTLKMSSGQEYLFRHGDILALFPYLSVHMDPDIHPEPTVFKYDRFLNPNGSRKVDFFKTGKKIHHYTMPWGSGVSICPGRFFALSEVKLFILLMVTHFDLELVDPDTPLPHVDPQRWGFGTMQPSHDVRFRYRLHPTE
The experiment in a line: Human CYP8B1 Liver Microsome Assay. The following applies: Human CYP8B1 IC50, human liver microsomes; substrate 7a-hydroxy-4-cholesten-3-one, NADPH; RapidFire MS detection of 7α,12α-dihydroxy-4-cholesten-3-one. (In general: Liver microsomes are a subcellular fraction often used to study metabolism.)
One may read the pIC50 as the IC50 on a negative log10 scale, so that one unit is a factor of ten. A lower pIC50 goes with a high IC50. `C=Cc1ccc2nc(C)c(C#N)c(N3CCC(C(=O)N4CCn5c(nnc5C(F)(F)F)C4)CC3)c2c1` [Example 54, 2-methyl-4-(4-(3-(trifluoromethyl)-5,6,7,8-tetrahydro-[1,2,4]triazolo[4,3-a]pyrazine-7-carbonyl)piperidin-1-yl)-6-vinylquinoline-3-carbonitrile] showed a negative logarithm of the IC50 (pIC50) of 6.83. For the compound `Cc1nc2ccc(C(F)F)cc2c(N2CCC(C(=O)N3CCn4c(nnc4C(F)(F)F)C3)CC2)c1C#N` [Example 55, 6-(difluoromethyl)-2-methyl-4-(4-(3-(trifluoromethyl)-5,6,7,8-tetrahydro-[1,2,4]triazolo[4,3-a]pyrazine-7-carbonyl)piperidin-1-yl)quinoline-3-carbonitrile], the pIC50 was 7.11. On to `C[C@@H]1CN(c2c(C#N)c(Cl)nc3ccc(Cl)cc23)CC[C@@H]1C(=O)N1CCn2c(nnc2C(F)(F)F)C1` [Example 56, 2,6-dichloro-4-[(3S,4S)-3-methyl-4-{[3-(trifluoromethyl)-5,6-dihydro[1,2,4]triazolo[4,3-a]pyrazin-7(8H)-yl]carbonyl}piperidin-1-yl]quinoline-3-carbonitrile], for which the pIC50 was 8.82.

In turn, `CC1CN(c2c(C#N)c(C(F)F)nc3ccc(Cl)cc23)CCC1C(=O)N1CCn2c(nnc2C(F)(F)F)C1` (stereo not drawn) [Example 57, 6-chloro-2-(difluoromethyl)-4-(3-methyl-4-{[3-(trifluoromethyl)-5,6-dihydro[1,2,4]triazolo[4,3-a]pyrazin-7(8H)-yl]carbonyl}piperidin-1-yl)quinoline-3-carbonitrile] showed a pIC50 of 7.16. Under `CC1CN(c2c(C#N)cnc3c(C(F)F)cc(Cl)cc23)CCC1C(=O)N1CCn2c(nnc2C(F)(F)F)C1` (stereo not drawn) [Example 58] stands 8.32; under `COC(=O)c1nc2ccc(Cl)cc2c(N2CC[C@H](C(=O)N3CCn4c(nnc4C(F)(F)F)C3)[C@H](C)C2)c1C#N` [Example 59, methyl 6-chloro-3-cyano-4-[(3S,4S)-3-methyl-4-{[3-(trifluoromethyl)-5,6-dihydro[1,2,4]triazolo[4,3-a]pyrazin-7(8H)-yl]carbonyl}piperidin-1-yl]quinoline-2-carboxylate], 7.74. With `COC(=O)c1ccc2nc(C(=O)OC)c(C#N)c(N3CC[C@H](C(=O)N4CCn5c(nnc5C(F)(F)F)C4)[C@H](C)C3)c2c1` [Example 60, dimethyl 3-cyano-4-[(3S,4S)-3-methyl-4-{[3-(trifluoromethyl)-5,6-dihydro[1,2,4]triazolo[4,3-a]pyrazin-7(8H)-yl]carbonyl}piperidin-1-yl]quinoline-2,6-dicarboxylate], the pIC50 was 6.57. Compound `C[C@@H]1CN(c2c(C#N)c(CO)nc3ccc(Cl)cc23)CC[C@@H]1C(=O)N1CCn2c(nnc2C(F)(F)F)C1` [Example 61, 6-chloro-2-(hydroxymethyl)-4-[(3S,4S)-3-methyl-4-{[3-(trifluoromethyl)-5,6-dihydro[1,2,4]triazolo[4,3-a]pyrazin-7(8H)-yl]carbonyl}piperidin-1-yl]quinoline-3-carbonitrile] had a pIC50 of 8.35. In turn, `C[C@@H]1CN(c2c(C#N)cnc3cc(OC(F)F)ccc23)CC[C@@H]1C(=O)N1CCn2c(nnc2C(F)(F)F)C1` [Example 62, 7-(difluoromethoxy)-4-[(3S,4S)-3-methyl-4-{[3-(trifluoromethyl)-5,6-dihydro[1,2,4]triazolo[4,3-a]pyrazin-7(8H)-yl]carbonyl}piperidin-1-yl]quinoline-3-carbonitrile] had a pIC50 of 8.96. Under `C[C@@H]1CN(c2c(C#N)cnc3cc(C4CC4)ccc23)CC[C@@H]1C(=O)N1CCn2c(nnc2C(F)(F)F)C1` [Example 63] stands 8.96; under `CC(C)Oc1ccc2c(N3CC[C@H](C(=O)N4CCn5c(nnc5C(F)(F)F)C4)[C@H](C)C3)c(C#N)cnc2c1` [Example 64, 4-[(3S,4S)-3-methyl-4-{[3-(trifluoromethyl)-5,6-dihydro[1,2,4]triazolo[4,3-a]pyrazin-7(8H)-yl]carbonyl}piperidin-1-yl]-7-(propan-2-yloxy)quinoline-3-carbonitrile], 9.52; under `C[C@H]1CN(c2c(C#N)cnc3c(F)c(Cl)ccc23)CC[C@H]1C(=O)N1CCn2c(nnc2C2CC2)C1` [Example 65, 7-chloro-4-{(3R,4R)-4-[(3-cyclopropyl-5,6-dihydro[1,2,4]triazolo[4,3-a]pyrazin-7(8H)-yl)carbonyl]-3-methylpiperidin-1-yl}-8-fluoroquinoline-3-carbonitrile], 6.50. With `C[C@@H]1CN(c2c(C#N)cnc3c(F)c(Cl)ccc23)CC[C@@H]1C(=O)N1CCn2c(nnc2C2CC2)C1` [Example 66, 7-chloro-4-{(3S,4S)-4-[(3-cyclopropyl-5,6-dihydro[1,2,4]triazolo[4,3-a]pyrazin-7(8H)-yl)carbonyl]-3-methylpiperidin-1-yl}-8-fluoroquinoline-3-carbonitrile], the pIC50 is 9.29. Regarding `C[C@@H]1CN(c2c(C#N)cnc3c(F)c(C4CC4)ccc23)CC[C@@H]1C(=O)N1CCn2c(nnc2C(F)(F)F)C1` [Example 67, 7-cyclopropyl-8-fluoro-4-[(3S,4S)-3-methyl-4-{[3-(trifluoromethyl)-5,6-dihydro[1,2,4]triazolo[4,3-a]pyrazin-7(8H)-yl]carbonyl}piperidin-1-yl]quinoline-3-carbonitrile], the pIC50 was 9.05. Take `N#Cc1cnc2cc(OCC3CC3)ccc2c1N1CCC(C(=O)N2CCn3c(nnc3C(F)(F)F)C2)CC1` [Example 68, 7-(cyclopropylmethoxy)-4-(4-{[3-(trifluoromethyl)-5,6-dihydro[1,2,4]triazolo[4,3-a]pyrazin-7(8H)-yl]carbonyl}piperidin-1-yl)quinoline-3-carbonitrile]: the pIC50 is 9.37. Take `CC(C)COc1ccc2c(N3CCC(C(=O)N4CCn5c(nnc5C(F)(F)F)C4)CC3)c(C#N)cnc2c1` [Example 69]: the pIC50 is 9.38. Regarding `COc1ccc2c(N3CC[C@H](C(=O)N4CCn5c(nnc5C(F)F)C4)[C@H](C)C3)c(C#N)cnc2c1` [Example 70, 4-[(3S,4S)-4-{[3-(difluoromethyl)-5,6-dihydro[1,2,4]triazolo[4,3-a]pyrazin-7(8H)-yl]carbonyl}-3-methylpiperidin-1-yl]-7-methoxyquinoline-3-carbonitrile], the pIC50 is 9.06. Turning to `C[C@@H]1CN(c2c(C#N)c[n+]([O-])c3cc(OCC4CC4)ccc23)CC[C@@H]1C(=O)N1CCn2c(nnc2C(F)(F)F)C1` [Example 71, 7-(cyclopropylmethoxy)-4-[(3S,4S)-3-methyl-4-{[3-(trifluoromethyl)-5,6-dihydro[1,2,4]triazolo[4,3-a]pyrazin-7(8H)-yl]carbonyl}piperidin-1-yl]quinoline-3-carbonitrile 1-oxide], the pIC50 was 9.27. With `CO[C@@H]1CN(c2c(C#N)cnc3ccc(Cl)cc23)CC[C@@H]1C(=O)N1CCn2c(nnc2C(F)(F)F)C1` [Example 72a, 6-chloro-4-[(3S,4S)-3-methoxy-4-{[3-(trifluoromethyl)-5,6-dihydro[1,2,4]triazolo[4,3-a]pyrazin-7(8H)-yl]carbonyl}piperidin-1-yl]quinoline-3-carbonitrile] the figure was 7.66. With `CO[C@@H]1CN(c2c(C#N)cnc3ccc(Cl)cc23)CC[C@H]1C(=O)N1CCn2c(nnc2C(F)(F)F)C1` [Example 72b, 6-chloro-4-[(3S,4R)-3-methoxy-4-{[3-(trifluoromethyl)-5,6-dihydro[1,2,4]triazolo[4,3-a]pyrazin-7(8H)-yl]carbonyl}piperidin-1-yl]quinoline-3-carbonitrile] the figure was 6.36; with `CO[C@H]1CN(c2c(C#N)cnc3ccc(Cl)cc23)CC[C@H]1C(=O)N1CCn2c(nnc2C(F)(F)F)C1` [Example 72c, 6-chloro-4-[(3R,4R)-3-methoxy-4-{[3-(trifluoromethyl)-5,6-dihydro[1,2,4]triazolo[4,3-a]pyrazin-7(8H)-yl]carbonyl}piperidin-1-yl]quinoline-3-carbonitrile], 5.66; with `CC[C@H]1CN(c2c(C#N)cnc3c(F)c(OC)ccc23)CC[C@H]1C(=O)N1CCn2c(nnc2C(F)(F)F)C1` [Example 74a, 4-[(3R,4R)-3-ethyl-4-{[3-(trifluoromethyl)-5,6-dihydro[1,2,4]triazolo[4,3-a]pyrazin-7(8H)-yl]carbonyl}piperidin-1-yl]-8-fluoro-7-methoxyquinoline-3-carbonitrile], 6.46. `CC[C@@H]1CN(c2c(C#N)cnc3c(F)c(OC)ccc23)CC[C@@H]1C(=O)N1CCn2c(nnc2C(F)(F)F)C1` [Example 74b, 4-[(3S,4S)-3-ethyl-4-{[3-(trifluoromethyl)-5,6-dihydro[1,2,4]triazolo[4,3-a]pyrazin-7(8H)-yl]carbonyl}piperidin-1-yl]-8-fluoro-7-methoxyquinoline-3-carbonitrile] showed a pIC50 of 8.68. With `CC[C@H]1CN(c2c(C#N)cnc3ccc(Cl)cc23)CC[C@H]1C(=O)N1CCn2c(nnc2C(F)(F)F)C1` [Example 75a, 6-chloro-4-[(3R,4R)-3-ethyl-4-{[3-(trifluoromethyl)-5,6-dihydro[1,2,4]triazolo[4,3-a]pyrazin-7(8H)-yl]carbonyl}piperidin-1-yl]quinoline-3-carbonitrile] the figure was 6.51.
